Data reported in patent US10947566B1, “Hydrogen peroxide production method, system, and apparatus” (SOLUGEN, INC., priority 2015, dated 2021).

Tested on: NQO1
Assay: NQO1/NADH/NAC cell-free reaction in 96-well plate: oxygen consumption rate (Seahorse XF Analyzer) and hydrogen peroxide produced (absorption at 240 nm)
Assay type: biochemical
Source text: Referring now to FIG. 1C-1D, data graphs are provided illustrating the results of one sample experiment for hydrogen peroxide produced using the one or more embodiments of the present disclosure described herein. In particular, FIG. 1C illustrates the generation of superoxide radicals by using the Oxygen Consumption Rate (OCR) with respect to time as a proxy for one experiment. Here, the experiment comprised using a Seahorse Bioscience XF Analyzer® instrument to measure the OCR with respect to time. In addition, a 96-well plate was used wherein each well was filled with 140 microliters of 100 units of NQO1, NADH, 4 micromolar NAC (β-Lacaphone), 50 millimolar Tris-HCl at pH 7 wherein the solutions were kept at atmospheric temperature. […] Further, at the conclusion of this 7-hour period, approximately […] hydrogen peroxide was produced and measured. […] Specifically, referring to FIG. 1D, the hydrogen peroxide concentration was measured using a spectrophotometric absorption of 240 nm corresponding to hydrogen peroxide.

`CC1(C)CCC2=C(O1)c1ccccc1C(=O)C2=O` [β-lapachone] was tested, and the “resulting hydrogen peroxide concentration” value (7-hour run cycle, spectrophotometric absorption 240 nm) was > 30%, the “Oxygen Consumption Rate (OCR) with respect to time, proxy for generation of superoxide radicals” value (100 units NQO1, NADH, 4 micromolar NAC, 50 millimolar Tris-HCl pH 7, atmospheric temperature, 7-hour period, measured every 2 minutes, versus DMSO vehicle control wells) was “dramatically increased and sustained OCR” and the “hydrogen peroxide produced and measured” value (at conclusion of 7-hour period, 100 units NQO1, NADH, 4 micromolar NAC, 50 millimolar Tris-HCl pH 7, spectrophotometric absorption 240 nm) was “approximately 12 molar”.
